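Dose response: 5 concentrations. Exposure: 48 h. Format: 96-well plates. Endpoint: linear interpolation; highest concentration if not reached. GI50 = concentration required for 50% inhibition of growth. Definition used: TGI = concentration required for complete inhibition of growth.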

Our source for the TGI and GI50 values is PubChem BioAssay (NCI).

Test systems include 786-0 renal; SK-MEL-2 melanoma; SF-539 CNS; SF-268 CNS; CAKI-1 renal; HS 578T breast; MDA-MB-231 breast; HOP-62 NSCLC; K-562 leukemia; RXF 393 renal.
Test in all cases: NCI-60 cell line screen, 48 h

Regarding `O=C(O)Cc1[nH]cnc1C(=O)O`, the TGI in the experiment with 786-0 renal, in the experiment with SK-MEL-2 melanoma, with SF-539 CNS, in the experiment on SF-268 CNS, with CAKI-1 renal and in the experiment on HS 578T breast was more than 100 µM in each case. For the same compound, the TGI with MDA-MB-231 breast, in the experiment with HOP-62 NSCLC, with K-562 leukemia and in the experiment with RXF 393 renal was more than 100 µM in each case.
With `N#CC1=C(N)Nc2nc3ccccc3n2C1c1ccccc1` (stereo not given), the TGI in the experiment on 786-0 renal, with SK-MEL-2 melanoma, in the experiment on SF-539 CNS, with SF-268 CNS, in the experiment with CAKI-1 renal and in the experiment on HS 578T breast was more than 100 µM each time. Also, the TGI in the experiment with MDA-MB-231 breast was more than 100 µM; in the experiment with HOP-62 NSCLC, more than 100 µM; with K-562 leukemia, more than 100 µM; in the experiment with RXF 393 renal, 56.3 µM.
For `CCOn1cc(C2=C(c3c[nH]c4ccccc34)C(=O)NC2=O)c2ccccc21`, the TGI in the experiment with 786-0 renal is 15.7 µM; in the experiment on SK-MEL-2 melanoma, 25.8 µM; in the experiment with SF-539 CNS, less than 0.01 µM; in the experiment with SF-268 CNS it was 25.1 µM; in the experiment with CAKI-1 renal, less than 0.0306 µM; in the experiment with MDA-MB-231 breast, 26.4 µM. Further, the TGI is 18.5 µM in the experiment with HOP-62 NSCLC and more than 33.1 µM with K-562 leukemia. The GI50 in the experiment with SK-MEL-2 melanoma was 12.2 µM; with SF-539 CNS, less than 0.01 µM; in the experiment on SF-268 CNS, less than 0.0385 µM; with CAKI-1 renal it was less than 0.0121 µM; with MDA-MB-231 breast it was 0.806 µM; with HOP-62 NSCLC, less than 0.01 µM. Besides, the GI50 in the experiment on K-562 leukemia was less than 0.0139 µM; in the experiment on RXF 393 renal, less than 0.0325 µM.
Turning to `CC1(C)N=C(N)N=C(N)N1c1cccc(OCc2cccc([N+](=O)[O-])c2)c1`, the TGI with 786-0 renal is more than 100 µM; in the experiment on SK-MEL-2 melanoma it was more than 100 µM; with SF-539 CNS, more than 79.4 µM; in the experiment on SF-268 CNS, more than 100 µM; in the experiment on CAKI-1 renal it was more than 100 µM; in the experiment on HS 578T breast, more than 100 µM. Besides, the TGI in the experiment with MDA-MB-231 breast, in the experiment on HOP-62 NSCLC, with K-562 leukemia and in the experiment on RXF 393 renal was more than 100 µM each time.
Turning to `COC(=O)c1nc2c3c(cccc3c1C(=O)OC)Nc1ccccc1-2`, the TGI with 786-0 renal was more than 100 µM; in the experiment on SK-MEL-2 melanoma it was 71.8 µM; with SF-539 CNS, more than 100 µM; in the experiment with SF-268 CNS, more than 100 µM; with CAKI-1 renal, more than 100 µM; in the experiment on HS 578T breast it was more than 100 µM. In addition, the TGI is more than 100 µM with MDA-MB-231 breast, 71.7 µM in the experiment on HOP-62 NSCLC, more than 100 µM with K-562 leukemia and more than 100 µM in the experiment on RXF 393 renal.
In the case of `O=C1OC2(c3ccc(O)cc3Oc3cc(O)ccc32)c2c1c(-c1ccccc1)c(-c1ccccc1)c(-c1ccccc1)c2-c1ccccc1`, the TGI in the experiment on 786-0 renal worked out at 75.6 µM; in the experiment with SK-MEL-2 melanoma, 36.3 µM; in the experiment with SF-539 CNS it was 40.8 µM; in the experiment with SF-268 CNS it was 53.1 µM; in the experiment with CAKI-1 renal, 62.8 µM; in the experiment with HS 578T breast, 47.7 µM. In addition, the TGI in the experiment with MDA-MB-231 breast is 37.4 µM; in the experiment with HOP-62 NSCLC it was 67.8 µM; in the experiment on K-562 leukemia, 70 µM; in the experiment with RXF 393 renal, 67.2 µM.
For `CSc1sc(=S)sc1SC`, the TGI with SK-MEL-2 melanoma is more than 31.6 µM; in the experiment with SF-539 CNS it was more than 100 µM; in the experiment with SF-268 CNS it was more than 100 µM; with CAKI-1 renal, more than 100 µM; in the experiment with HOP-62 NSCLC, more than 100 µM; in the experiment on K-562 leukemia, more than 100 µM. Also, the TGI with RXF 393 renal was more than 100 µM.
Consider `C/C(=C\COP(=O)(O)OP(=O)(O)O)CC/C=C(\C)CNc1ccc([N+](=O)[O-])cc1`, for which the TGI in the experiment with 786-0 renal, in the experiment with SK-MEL-2 melanoma, in the experiment with SF-539 CNS, in the experiment on SF-268 CNS, in the experiment on CAKI-1 renal and in the experiment with HS 578T breast was more than 100 µM in each case. The TGI in the experiment with MDA-MB-231 breast, in the experiment on HOP-62 NSCLC, with K-562 leukemia and in the experiment with RXF 393 renal was more than 100 µM each time.
As to `C#C[C@@]1(O)[C@@H](CO)O[C@@H](n2cc(F)c3c(N)ncnc32)[C@@H]1O`, the GI50 in the experiment on SK-MEL-2 melanoma was 0.446 µM; with SF-539 CNS, 1.31 µM; in the experiment on SF-268 CNS it was 0.751 µM; in the experiment on HS 578T breast it was 3.97 µM; in the experiment on MDA-MB-231 breast, 0.379 µM; with HOP-62 NSCLC it was 0.571 µM. Also, the GI50 in the experiment with K-562 leukemia was 0.285 µM; with RXF 393 renal, 0.727 µM. Also, the TGI is 2.87 µM with SK-MEL-2 melanoma; 5.29 µM in the experiment on SF-539 CNS; 78.3 µM in the experiment on SF-268 CNS; more than 100 µM in the experiment on HS 578T breast; 2.98 µM with MDA-MB-231 breast; 7.79 µM with HOP-62 NSCLC. Also, the TGI in the experiment on K-562 leukemia was more than 100 µM; in the experiment on RXF 393 renal it was 2.99 µM.
As to `NC(=O)c1cc(C2OC(CO)C(O)C2O)nn1-c1ccc([N+](=O)[O-])cc1` (stereo not given), the TGI in the experiment on SK-MEL-2 melanoma, with SF-539 CNS, in the experiment on SF-268 CNS, with CAKI-1 renal, in the experiment on HOP-62 NSCLC and in the experiment with K-562 leukemia was more than 100 µM each time. The compound also registered a TGI with RXF 393 renal of more than 100 µM.
Consider `C[C@H](CCC1=NCCN1)[C@H]1CC[C@H]2[C@@H]3CC[C@@H]4C[C@H](O)CC[C@]4(C)[C@H]3CC[C@]12C`, for which the TGI was 21.3 µM in the experiment with SK-MEL-2 melanoma; more than 58.1 µM in the experiment on SF-539 CNS; 34.3 µM in the experiment with SF-268 CNS; 20.2 µM with CAKI-1 renal; 48.2 µM in the experiment on HS 578T breast; more than 41 µM in the experiment on MDA-MB-231 breast. Further, the TGI is 20.9 µM in the experiment with HOP-62 NSCLC, more than 21.8 µM in the experiment on K-562 leukemia and 55.2 µM with RXF 393 renal.
Take `O=C(O)C(Br)Cc1ccc2c(c1)OCO2` (stereo not given): the TGI with SK-MEL-2 melanoma, with SF-539 CNS, with SF-268 CNS, in the experiment with CAKI-1 renal, in the experiment with HOP-62 NSCLC and in the experiment with K-562 leukemia was more than 100 µM in each case. In the experiment on RXF 393 renal, this compound came in with a TGI of more than 100 µM.
As to `COc1ccc(/C(Cl)=C(\C=O)c2ccc(Cl)c(Cl)c2)cc1OC`, the TGI was 15 µM with SK-MEL-2 melanoma; 19.2 µM in the experiment on SF-539 CNS; 18.5 µM in the experiment with SF-268 CNS; 18.8 µM in the experiment on CAKI-1 renal; 31.7 µM with HOP-62 NSCLC; more than 100 µM with K-562 leukemia.
With `CCCCCCCCCCCCCCCCOCCCOP(=O)(O)C1CCCN(O)C1=O` (stereo not given), the GI50 with SK-MEL-2 melanoma was 5.95 µM; with SF-539 CNS, 3.02 µM; in the experiment on SF-268 CNS, 1.81 µM; with CAKI-1 renal it was 2.09 µM; in the experiment with HS 578T breast, 14.1 µM; with MDA-MB-231 breast, 2.3 µM. The GI50 in the experiment on HOP-62 NSCLC is 0.837 µM; with K-562 leukemia, 4.25 µM; in the experiment on RXF 393 renal it was 1.9 µM. The TGI in the experiment on SK-MEL-2 melanoma came to 24.6 µM; in the experiment with SF-539 CNS it was 11 µM; in the experiment with SF-268 CNS, 11.7 µM; in the experiment on CAKI-1 renal, 6.18 µM; with HS 578T breast it was 66.7 µM; in the experiment with MDA-MB-231 breast it was 16.8 µM. Also, the TGI with HOP-62 NSCLC was 18.6 µM; in the experiment on K-562 leukemia, 42.3 µM; with RXF 393 renal it was 12.2 µM.
As to `COc1ccc(/C=C/[N+](=O)[O-])cc1`, the TGI was more than 100 µM in the experiment with 786-0 renal; 52.7 µM in the experiment on SK-MEL-2 melanoma; 4.92 µM with SF-539 CNS; 8.11 µM in the experiment on SF-268 CNS; 36.6 µM in the experiment with HS 578T breast; 55.3 µM with MDA-MB-231 breast. Moreover, the TGI with HOP-62 NSCLC and in the experiment with K-562 leukemia was more than 100 µM each time.
Turning to `O=C1c2ccccc2C(=O)c2c(O)c(O)cc(O)c21`, the TGI with 786-0 renal is more than 100 µM; with SK-MEL-2 melanoma it was 69.1 µM; in the experiment on SF-539 CNS it was 66 µM; with SF-268 CNS, more than 100 µM; in the experiment on CAKI-1 renal it was more than 100 µM; in the experiment on HOP-62 NSCLC, 69.9 µM. For the same compound, the TGI is more than 100 µM in the experiment on K-562 leukemia and 85.4 µM in the experiment with RXF 393 renal.
Consider `COc1cc2c3c(c4cc(OC)c(OC)cc4c2cc1OC)[C@H](O)[C@@H]1CCCN1C3`, for which the TGI in the experiment with SK-MEL-2 melanoma was 0.234 µM; in the experiment on CAKI-1 renal, 2.3 µM; in the experiment with MDA-MB-231 breast it was 0.562 µM; with HOP-62 NSCLC, 0.57 µM; in the experiment with K-562 leukemia, more than 100 µM; with RXF 393 renal, 1.28 µM.
As to `Nc1nncs1`, the TGI is more than 5000 µM with 786-0 renal; more than 5000 µM in the experiment on SK-MEL-2 melanoma; more than 5000 µM in the experiment on SF-539 CNS; more than 5000 µM in the experiment with SF-268 CNS; more than 4630 µM with CAKI-1 renal; more than 5000 µM in the experiment on HS 578T breast. Moreover, the TGI in the experiment with MDA-MB-231 breast was more than 5000 µM; in the experiment with HOP-62 NSCLC it was 1700 µM; with K-562 leukemia it was more than 5000 µM; with RXF 393 renal, more than 5000 µM.
For the compound `COc1ccc2c(c1)/C(=C\c1cccc(/C=C3/C(=O)Nc4ccc(OC)cc43)n1)C(=O)N2`, the TGI was 2.55 µM with 786-0 renal; 15.5 µM in the experiment on SK-MEL-2 melanoma; 5.7 µM with SF-539 CNS; more than 39.9 µM with SF-268 CNS; 5.62 µM in the experiment with CAKI-1 renal; more than 46.9 µM in the experiment with HS 578T breast. Further, the TGI was 4.78 µM in the experiment with MDA-MB-231 breast, 5.07 µM in the experiment with HOP-62 NSCLC, 2.02 µM with K-562 leukemia and 2.89 µM in the experiment on RXF 393 renal. For the same compound, the GI50 in the experiment on MDA-MB-231 breast is 0.873 µM.
Regarding `O=C(O)CNCc1c2ccccc2[n+]([O-])c2ccccc12`, the TGI in the experiment on 786-0 renal, with SK-MEL-2 melanoma, in the experiment on SF-268 CNS, in the experiment with CAKI-1 renal, with HOP-62 NSCLC and with K-562 leukemia was more than 100 µM in each case.
